Read-outs that look alike come from different tables or passages of the source.
Test: CelltiterGlo viability cell assay
Format: cell-based
Conditions: human
Outline: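 CelltiterGlo luminescence, day 3 and day 6 readouts; compound 0.01–30 μM; data normalized to DMSO; n=3 biological replicates ± SEM.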

[1] = CAL851 breast cancer cells, CAL851, 3 day, read-out: viability Average
[2] = CAL851 breast cancer cells, CAL851, 3 day, read-out: viability Replicate 1
[3] = CAL851 breast cancer cells, CAL851, 3 day, read-out: viability Replicate 2
[4] = CAL851 breast cancer cells, CAL851, 3 day, read-out: viability Replicate 3
[5] = CAL851 breast cancer cells, CAL851, 6 day, read-out: viability Average
[6] = CAL851 breast cancer cells, CAL851, 6 day, read-out: viability Replicate 1
[7] = CAL851 breast cancer cells, CAL851, 6 day, read-out: viability Replicate 2
[8] = CAL851 breast cancer cells, CAL851, 6 day, read-out: viability Replicate 3
[9] = CAL851 cells, CAL851, 3 day, read-out: viability Replicate 1
[10] = CAL851 cells, CAL851, 3 day, read-out: viability Replicate 2
[11] = HCC1143 breast cancer cells, HCC1143, 3 day, read-out: viability Average
[12] = HCC1143 breast cancer cells, HCC1143, 3 day, read-out: viability Replicate 1
[13] = HCC1143 breast cancer cells, HCC1143, 3 day, read-out: viability Replicate 2
[14] = HCC1143 breast cancer cells, HCC1143, 3 day, read-out: viability Replicate 3

Question: For `COc1cc(OC)cc(-c2noc(N3CCN(C)C4(CCN(c5ccnc(C)c5)CC4)C3)n2)c1` [MRK-740], which viability at 3 day, 0.01 µM [1] is on record?
Answer: 95.7%

Question: And the viability at 3 day, 0.01 µM [2]?
Answer: 91.6%

Question: What about the viability at 3 day, 0.01 µM [3] of the same compound?
Answer: 94.6%

Question: And the viability at 3 day, 0.01 µM [4]?
Answer: 101%

Question: And the viability at 3 day, 0.03 µM [1]?
Answer: 94.4%

Question: And the viability at 3 day, 0.03 µM [2]?
Answer: 93.2%

Question: What about the viability at 3 day, 0.03 µM [3] of the same compound?
Answer: 92.2%

Question: What about the viability at 3 day, 0.03 µM [4] of the same compound?
Answer: 97.9%

Question: What about the viability at 3 day, 0.3 µM [1] of the same compound?
Answer: 98.9%

Question: And the viability at 3 day, 0.3 µM [4]?
Answer: 104%

Question: What about the viability at 3 day, 1 µM [1] of the same compound?
Answer: 98%

Question: And the viability at 3 day, 1 µM [2]?
Answer: 88.2%

Question: What about the viability at 3 day, 1 µM [3] of the same compound?
Answer: 93.7%

Question: What about the viability at 3 day, 1 µM [4] of the same compound?
Answer: 112%

Question: And the viability at 3 day, 3 µM [1]?
Answer: 88%

Question: And the viability at 3 day, 3 µM [2]?
Answer: 88.9%

Question: What about the viability at 3 day, 3 µM [3] of the same compound?
Answer: 78.6%

Question: And the viability at 3 day, 3 µM [4]?
Answer: 96.5%

Question: And the viability at 3 day, 9.5 µM [1]?
Answer: 72%

Question: And the viability at 3 day, 9.5 µM [2]?
Answer: 69.7%

Question: What about the viability at 3 day, 9.5 µM [3] of the same compound?
Answer: 68.9%

Question: And the viability at 3 day, 9.5 µM [4]?
Answer: 77.4%

Question: What about the viability at 3 day, 30 µM [1] of the same compound?
Answer: 21.2%

Question: What about the viability at 3 day, 30 µM [2] of the same compound?
Answer: 18.4%

Question: And the viability at 3 day, 30 µM [3]?
Answer: 24.5%

Question: What about the viability at 3 day, 30 µM [4] of the same compound?
Answer: 20.7%

Question: And the viability at 6 day, 0.01 µM [5]?
Answer: 113%

Question: What about the viability at 6 day, 0.01 µM [6] of the same compound?
Answer: 109%

Question: What about the viability at 6 day, 0.01 µM [7] of the same compound?
Answer: 118%

Question: What about the viability at 6 day, 0.01 µM [8] of the same compound?
Answer: 113%

Question: What about the viability at 6 day, 0.03 µM [5] of the same compound?
Answer: 114%

Question: And the viability at 6 day, 0.03 µM [6]?
Answer: 103%

Question: What about the viability at 6 day, 0.03 µM [7] of the same compound?
Answer: 114%

Question: And the viability at 6 day, 0.03 µM [8]?
Answer: 126%

Question: And the viability at 6 day, 0.1 µM [5]?
Answer: 129%

Question: And the viability at 6 day, 0.1 µM [6]?
Answer: 116%

Question: And the viability at 6 day, 0.1 µM [7]?
Answer: 126%

Question: And the viability at 6 day, 0.1 µM [8]?
Answer: 145%

Question: What about the viability at 6 day, 0.3 µM [5] of the same compound?
Answer: 118%

Question: What about the viability at 6 day, 0.3 µM [6] of the same compound?
Answer: 121%

Question: And the viability at 6 day, 0.3 µM [7]?
Answer: 117%

Question: And the viability at 6 day, 0.3 µM [8]?
Answer: 115%

Question: And the viability at 6 day, 1 µM [5]?
Answer: 117%

Question: And the viability at 6 day, 1 µM [6]?
Answer: 109%

Question: What about the viability at 6 day, 1 µM [7] of the same compound?
Answer: 108%

Question: And the viability at 6 day, 1 µM [8]?
Answer: 134%

Question: And the viability at 6 day, 3 µM [5]?
Answer: 100%

Question: And the viability at 6 day, 3 µM [6]?
Answer: 93.2%

Question: What about the viability at 6 day, 3 µM [7] of the same compound?
Answer: 104%

Question: And the viability at 6 day, 3 µM [8]?
Answer: 104%

Question: What about the viability at 6 day, 9.5 µM [5] of the same compound?
Answer: 73.1%

Question: What about the viability at 6 day, 9.5 µM [6] of the same compound?
Answer: 59.9%

Question: And the viability at 6 day, 9.5 µM [7]?
Answer: 75.6%

Question: What about the viability at 6 day, 9.5 µM [8] of the same compound?
Answer: 83.9%

Question: What about the viability at 6 day, 30 µM [5] of the same compound?
Answer: 14.9%

Question: What about the viability at 6 day, 30 µM [6] of the same compound?
Answer: 22.8%

Question: And the viability at 6 day, 30 µM [7]?
Answer: 11.9%

Question: And the viability at 6 day, 30 µM [8]?
Answer: 10%

Question: What about the viability at 3 day, 0.1 µM (CAL851 cells, CAL851, 3 day, read-out: viability Average) of the same compound?
Answer: 99.9%

Question: What about the viability at 3 day, 0.1 µM [9] of the same compound?
Answer: 97.5%

Question: What about the viability at 3 day, 0.1 µM [10] of the same compound?
Answer: 91.8%

Question: What about the viability at 3 day, 0.1 µM (CAL851 cells, CAL851, 3 day, read-out: viability Replicate 3) of the same compound?
Answer: 111%

Question: What about the viability at 3 day, 0.3 µM [9] of the same compound?
Answer: 94.7%

Question: And the viability at 3 day, 0.3 µM [10]?
Answer: 97.8%

Question: What about the viability at 3 day, 0.01 µM [11] of the same compound?
Answer: 96.2%

Question: What about the viability at 3 day, 0.01 µM [12] of the same compound?
Answer: 100%

Question: And the viability at 3 day, 0.01 µM [13]?
Answer: 94.8%

Question: What about the viability at 3 day, 0.01 µM [14] of the same compound?
Answer: 93.8%

Question: And the viability at 3 day, 0.03 µM [11]?
Answer: 94.8%

Question: And the viability at 3 day, 0.03 µM [12]?
Answer: 92.9%

Question: What about the viability at 3 day, 0.03 µM [13] of the same compound?
Answer: 94.1%

Question: What about the viability at 3 day, 0.03 µM [14] of the same compound?
Answer: 97.3%

Question: What about the viability at 3 day, 0.3 µM [11] of the same compound?
Answer: 98.1%

Question: What about the viability at 3 day, 0.3 µM [12] of the same compound?
Answer: 99.7%

Question: And the viability at 3 day, 0.3 µM [13]?
Answer: 97.7%

Question: And the viability at 3 day, 0.3 µM [14]?
Answer: 96.9%

Question: What about the viability at 3 day, 1 µM [11] of the same compound?
Answer: 97.8%

Question: And the viability at 3 day, 1 µM [12]?
Answer: 101%

Question: And the viability at 3 day, 1 µM [13]?
Answer: 93.9%

Question: What about the viability at 3 day, 1 µM [14] of the same compound?
Answer: 98.8%

Question: What about the viability at 3 day, 3 µM [11] of the same compound?
Answer: 92.9%

Question: And the viability at 3 day, 3 µM [12]?
Answer: 94.7%

Question: And the viability at 3 day, 3 µM [13]?
Answer: 91%

Question: What about the viability at 3 day, 3 µM [14] of the same compound?
Answer: 93%

Question: What about the viability at 3 day, 9.5 µM [11] of the same compound?
Answer: 71.7%

Question: What about the viability at 3 day, 9.5 µM [12] of the same compound?
Answer: 73.8%

Question: And the viability at 3 day, 9.5 µM [13]?
Answer: 69.4%

Question: And the viability at 3 day, 9.5 µM [14]?
Answer: 72%

Question: What about the viability at 3 day, 30 µM [11] of the same compound?
Answer: 25.7%

Question: And the viability at 3 day, 30 µM [12]?
Answer: 27.4%

Question: And the viability at 3 day, 30 µM [13]?
Answer: 27.1%

Question: What about the viability at 3 day, 30 µM [14] of the same compound?
Answer: 22.6%

Question: And the viability at 6 day, 0.03 µM (HCC1143 breast cancer cells, HCC1143, 6 day, read-out: viability Average)?
Answer: 101%

Question: What about the viability at 6 day, 0.03 µM (HCC1143 breast cancer cells, HCC1143, 6 day, read-out: viability Replicate 1) of the same compound?
Answer: 96.8%

Question: And the viability at 6 day, 0.03 µM (HCC1143 breast cancer cells, HCC1143, 6 day, read-out: viability Replicate 2)?
Answer: 101%

— paper PMC6917776, “Discovery of a chemical probe for PRDM9” (Nature Communications, 2019)
